Assay results reported in patent US6420428B1, “Treatment and prevention of hepatic disorders” (The Regents of the University of California, priority 1996, dated 2002).
“Also recorded” adds a separate entry of the source.

Tests used:
[1] = biological target: T1, 5-lipoxygenase (Homo sapiens, UniProt P09917); conditions: cited from earlier work
T1 sequence (P09917 1-674): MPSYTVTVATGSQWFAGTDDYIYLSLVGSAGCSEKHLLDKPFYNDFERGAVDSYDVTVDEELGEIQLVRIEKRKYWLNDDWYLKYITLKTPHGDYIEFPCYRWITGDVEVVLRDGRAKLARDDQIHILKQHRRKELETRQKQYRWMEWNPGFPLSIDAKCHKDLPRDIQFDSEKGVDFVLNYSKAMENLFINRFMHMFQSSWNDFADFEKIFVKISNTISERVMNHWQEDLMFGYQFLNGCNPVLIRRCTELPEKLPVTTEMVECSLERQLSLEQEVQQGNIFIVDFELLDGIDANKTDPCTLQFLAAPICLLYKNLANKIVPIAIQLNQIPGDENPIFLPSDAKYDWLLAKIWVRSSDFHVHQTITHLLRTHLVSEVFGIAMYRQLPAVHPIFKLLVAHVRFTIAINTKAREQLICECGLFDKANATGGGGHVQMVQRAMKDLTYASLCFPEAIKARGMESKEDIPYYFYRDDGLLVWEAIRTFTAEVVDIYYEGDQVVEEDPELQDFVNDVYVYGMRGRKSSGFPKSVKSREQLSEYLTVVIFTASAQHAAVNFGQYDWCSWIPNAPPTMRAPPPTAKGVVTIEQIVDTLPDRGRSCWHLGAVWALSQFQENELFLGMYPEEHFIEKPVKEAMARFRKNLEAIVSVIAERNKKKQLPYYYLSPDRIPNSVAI

[2] = test system: fatty acid cyclooxygenase; conditions: cited from earlier work
[3] = test system: phospholipase A2; conditions: cited from earlier work
[4] = test system: human polymorphonuclear leukocytes; conditions: stimulated with calcium ionophore A23187; cited from earlier work
[5] = test system: cultured stellate cells; conditions: cited from earlier work
[6] = cited from earlier work
[7] = test system: hepatic stellate cells; assay: Activation of cultured hepatic stellate cells (α-SMA immunohistochemistry); assay type: cell-based, Sprague-Dawley rats; conditions: for effect on stellate cell activation / increased α-SMA expression induced by collagen type I matrix: cultured on collagen type I matrix
Method: Stellate cells were prepared from male Sprague-Dawley (400-500 grams) rats (Charles River Breeding Labs) by in situ perfusion of the liver and single-step density Nycodenz® gradient (Accurate Chemical & Scientific Corp.). [See Bedossa et al., Hepatology 19(5):1262-71 (1994); Brenner et al., Mol. Biol. Med. 7:105-15 (1990)]. The cells were mixed with 9.5 mL Hank's buffer containing 3 g/L BSA and 8 mL of 28.7% (w/v) Nycodenz® in sodium-free Hank's buffer. The gradient was generated by placing 6 mL of the Hank's/BSA solution on top of the liver cell mixture in a 50 mL centrifugation tube. […] For TGFα-induced stellate cell activation, cells were cultured on plastic in serum-free defined media (Fibroblast basal medium with Insulin, Clonetics). Fibroblast basal medium is similar to F12 medium, but contains folinic acid, Hepes buffer with NaOH, MgSO4, and adenine instead of folic acid, NaHCO3, MgCl2 and hypoxanthine. Cells were plated on 60-mm dishes coated with collagen type 1, EHS matrix (Matrigel; Collaborative Bio-medical Products) or plastic (according to the experimental design), for the initial seeding of fat-storing cells at a density of 2-3×10^6. Matrigel's major components are […], collagen IV, proteoglycans, entactin and nidogen; it also contains:TGFβ, fibroblast growth factor, and tissue plasminogen activator. […] Medium was changed every 24 h for all conditions. The sequences of c-myb oligonucleotide phosphorothioate were: sense ([NT] ID NO:3) and antisense ([NT] ID NO:4). Stellate cells were identified by their typical autofluorescence at 328 nm excitation wavelength, staining of lipid droplets by oil red, and immunohistochemistry with a monoclonal antibody against desmin. [Bedossa et al., Hepatology 19(5):1262-71 (1994)]. Cells, fixed with acetone:methanol (50:50) at -20° C. for 20 min., and liver tissue were immunostained as described, e.g., by Buck et al., EMBO J. 13:851-60 (1994). Antibodies directed against c-myb, NFkB65, α-SMA, or PCNA were obtained from Sigma, 5 Prime 3 Prime, and Oncogene Sciences. Fluorescent labels were visualized using a dual channel Zeiss microscope and a computer imaging system (Image 1 software). A phase-contrast microscope was utilized to visualize antigens with alkaline phosphatase secondary antibodies (Vector Laboratories). Cytochromes utilized were alkaline phosphatase with fast green as counterstain, and FITC with Evans blue as counterstain (Sigma). The number of PCNA (+), c-myb(+), or NFkB(+), α-SMA(+) cells was expressed as a percentage of total cells. At least 1,000 cells were analyzed for each experimental point, and a minimum of two observers analyzed each immunohistochemical experiment independently. Negative control samples were processed in parallel under the same conditions, but with omission of the first antibody. The role of lipid peroxidation on stellate cell activation was examined. Stellate cell activation was induced in quiescent cells growing on a EHS matrix; inhibition of this phenotype was evaluated with cells activated by collagen type I matrix. [See Davis et al., J. Biol. Chem. 262:10280-86 (1987)]. When stellate cell activation was induced by TGFα as described, e.g., by Pinzani et al., J. Clin. […] Stellate cell activation was assessed by the expression of α-SMA (as described in Example 1) and S-phase by the presence of PCNA. [Bravo et al., Nature (Lond.) 326:515-17 (1987)]. […] SEM<30% of the mean for all conditions).

[8] = test system: hepatic stellate cells; assay: Proliferation of cultured hepatic stellate cells (nuclear expression of PCNA, S-phase); assay type: cell-based, Sprague-Dawley rats; conditions: for effect on stellate cell cycle activation (PCNA) induced by collagen type I matrix or TGFα: 50 μM
Method: Stellate cells were prepared from male Sprague-Dawley (400-500 grams) rats (Charles River Breeding Labs) by in situ perfusion of the liver and single-step density Nycodenz® gradient (Accurate Chemical & Scientific Corp.). […] The cells were mixed with 9.5 mL Hank's buffer containing 3 g/L BSA and 8 mL of 28.7% (w/v) Nycodenz® in sodium-free Hank's buffer. The gradient was generated by placing 6 mL of the Hank's/BSA solution on top of the liver cell mixture in a 50 mL centrifugation tube. After centrifugation (1000 g, 4° C., 20 min) the cells were aspirated from above the interface and washed twice in serum-free DME regular glucose medium.
Thereafter, the cells were cultured under an atmosphere of 5% CO2, 95% air in tissue culture dishes using DME medium containing penicillin G 100 units/mL, streptomycin sulfate 100 μg/mL and 10% fetal calf serum. For TGFα-induced stellate cell activation, cells were cultured on plastic in serum-free defined media (Fibroblast basal medium with Insulin, Clonetics). Fibroblast basal medium is similar to F12 medium, but contains folinic acid, Hepes buffer with NaOH, MgSO4, and adenine instead of folic acid, NaHCO3, MgCl2 and hypoxanthine. Cells were plated on 60-mm dishes coated with collagen type 1, EHS matrix (Matrigel; Collaborative Bio-medical Products) or plastic (according to the experimental design), for the initial seeding of fat-storing cells at a density of 2-3×10^6. […]
The number of PCNA (+), c-myb(+), or NFkB(+), α-SMA(+) cells was expressed as a percentage of total cells. At least 1,000 cells were analyzed for each experimental point, and a minimum of two observers analyzed each immunohistochemical experiment independently. […]
The role of lipid peroxidation on stellate cell activation was examined. Stellate cell activation was induced in quiescent cells growing on a EHS matrix; inhibition of this phenotype was evaluated with cells activated by collagen type I matrix. […] Stellate cell activation was assessed by the expression of α-SMA (as described in Example 1) and S-phase by the presence of PCNA.

[9] = test system: chronic hepatitis B or C; conditions: in vivo; cited from earlier work
[10] = nutritional- or CCl4-induced injury; cited from earlier work
[11] = test system: fibrogenesis cascade in the liver of patients with chronic hepatitis C; assay: Liver biopsy immunohistochemistry and in situ hybridization in patients with chronic hepatitis C; assay type: in vivo, human; conditions: 8 weeks
Method: Antisera to MDA-lysine adducts were prepared by a variation of the technique described by Houglum et al., J Clin Invest 86:1991-98 (1990). Briefly, rabbit LDS was purified and modified with MDA, and the modified autologous LDL was used to immunize rabbits.
Sections from paraffin-embedded blocks were deparaffinized, passed through graded series of alcohol, rehydrated in PBS, and stained with hematoxylin and eosin. Immunohistochemistry was performed using the avidin-biotin complex-alkaline phosphatase, peroxidase systems (Vector Laboratories, ABC-peroxidase system) or fluorescein. Sections were immunostained with antibodies specific for MDA-protein adducts, α-smooth muscle actin (Sigma), or c-myb.
The antisera was used with fluorochrome-conjugated secondary antibodies. Fluorescent labels were visualized using a dual filter Zeiss microscope, while a phase-contrast microscope was used to visualize antigens with hematoxilin/eosin or alkaline phosphatase secondary antibodies.
Hybridization, RNase digestion of mismatched sequences, and immunological detection of the digoxigenin-labeled RNA probes were performed as described by Houglum et al., Am. […] Briefly, single stranded RNA probes in both sense and antisense orientations were transcribed in vitro from the plasmid pHuCol, which contains a 300 base pair cDNA fragment of the human collagen α1(I) gene, and labeled with digoxigenin-11-UTP. […] For the labelling procedure, 2 μg of linearized plasmid were transcribed in a 30 μL reaction volume containing 40 mM tris(hydroxymethyl)aminomethane (Tris).HCl, pH 7.9; 6 mM MgCl2; 2 mM apermidine.HCl; 10 mM dithiothreitol, 10 mM ATP, CTP, and GTP; 6.5 mM UTP; and 3.5 mM digoxigenin-11-UTP with 309 units of T3 or T7 DNA polymerase. The specificity of the probe was assessed by in situ hybridization of human skin. All sections were processed using same batches of probe and reagents and using sense and antisense in parallel.

[12] = Carbonyl modifications of plasma proteins (index of oxidative stress) in patients; assay type: in vivo, human; conditions: 1,200 IU/day, 8 weeks; before treatment 2.7±0.4; P<0.001
Text: (§1) Patients with chronic active hepatitis C and severe necro-inflammatory changes without cirrhosis (as established by liver biopsy) were studied at the University of California San Diego Liver Clinic. Six patients (2 women and 4 men; 47±8 years) who had not responded to interferon α-2b therapy (i.e., who were refractory) and with no other co-morbid illnesses received 1,200 IU/day of d-α-tocopherol orally for 8 weeks. On completion of the study, all patients underwent a liver biopsy; liver sections from patients with chronic hepatitis C and from individuals without liver disease were provided by Dr. C. Behling at UCSD.
(§2) Liver tissue obtained from biopsies was studied, as described below, by immunohistochemistry and in situ hybridization with specific riboprobes. Carbonyl modifications were assayed in plasma proteins, as an index of oxidative stress. [Palinski et al., Arteriosclerosis 10:325-35 (1990)]. Serum alanine aminotransferase (ALT) was determined with a (Hitachi) analyzer, plasma d-α-tocopherol by high pressure chromatography, and HCV RNA by quantitative PCR. [See U.S. Pat. Nos. 4,683,202 and 4,683,195, hereby incorporated by reference].

[13] = test system: HCV; assay: HCV RNA by quantitative PCR in patients; assay type: in vivo, human; conditions: 1,200 IU/day, 8 weeks
Text: as §1, §2

[14] = test system: collagen expression; conditions: injected into mice; cited from earlier work
[15] = Plasma d-α-tocopherol by high pressure chromatography in patients; assay type: in vivo, human; conditions: 1,200 IU/day orally for 8 weeks; before treatment 9.6±4.3; P<0.003
Text: as §1, §2

[16] = in vivo; cited from earlier work
[17] = test system: cyclooxygenase; conditions: cited from earlier work
[18] = biological target: T1, 5-lipoxygenase; conditions: cited from earlier work; remark: listed apart in the source

Molecule: CC(C)(C)c1cc(C=C2SCNC2=O)cc(C(C)(C)C)c1O [LY-178002, 5-{[3,5-bis(1,1-dimethylethyl)-4-hydroxyphenyl]methylene}-4-thiazolidine]
- enzymatic activity of 5-lipoxygenase [1]: inhibit
- enzymatic activity of fatty acid cyclooxygenase [2]: inhibit
- enzymatic activity of phospholipase A2 [3]: inhibit
- leukotriene B4 production [4]: inhibit leukotriene B4 production

Molecule: CCCOC(=O)c1cc(O)c(O)c(O)c1 [propyl gallate]
- inhibition of activation and collagen expression/production [5]: success in inhibiting activation and collagen production

Molecule: Cc1cc(C(C)(C)C)c(O)c(C(C)(C)C)c1 [BHT, 2,6-Bis(1,1-dimethylethyl)-4-methylphenol]
- solubility in alcohols ([6]; alcohols like ethanol and isopropanol): soluble
- solubility in water ([6]; water): insoluble
- effect on stellate cell activation / increased α-SMA expression induced by collagen type I matrix ([7]; 50 μM): blocked the induction of stellate cell activation by collagen type I matrix; also recorded: abolished
- effect on stellate cell cycle activation (PCNA) induced by collagen type I matrix or TGFα [8]: blocked the activation of the stellate cell cycle

Molecule: NC(=O)c1ncn([C@@H]2O[C@H](CO)[C@@H](O)[C@H]2O)n1 [ribovirin]
- effectiveness [9]: neither has been shown to be very effective

Molecule: CCCCC[C@H](O)/C=C/[C@H]1[C@H](O)CC(=O)[C@@H]1C/C=C\CCCC(=O)O [prostaglandin E2]
- hepatocellular necrosis [10]: ameliorate hepatocellular necrosis

Molecule: Cc1c(C)c2c(c(C)c1O)CC[C@@](C)(CCC[C@H](C)CCC[C@H](C)CCCC(C)C)O2 [d-α-tocopherol]
- hepatocellular necrosis [10]: ameliorate hepatocellular necrosis
- expression of c-myb in stellate cells ([11]; 1,200 IU/day orally): diminished expression of c-myb in stellate cells
- stellate cell activation (α-SMA) in liver sections ([11]; 1,200 IU/day orally): lesser degree of stellate cell activation
- expression of collagen α1(I) mRNA in stellate cells ([11]; 1,200 IU/day orally, in situ hybridization): lower expression of collagen al(I) mRNA in stellate cells
- MDA-adducts in liver sections ([11]; 1,200 IU/day orally, patients refractory to interferon): decreased MDA-adducts
- effect on histologic degree of hepatocellular inflammation ([11]; 1,200 IU/day): did not significantly affect
- carbonyl modified plasma proteins after treatment [12]: 1.5 ± 0.4 µmol/mL
- effect on HCV titres [13]: did not significantly affect
- effect on stellate cell activation / increased α-SMA expression induced by collagen type I matrix ([7]; 50 μM): blocked the induction of stellate cell activation by collagen type I matrix; also recorded: abolished
- effect on stellate cell cycle activation (PCNA) induced by collagen type I matrix or TGFα [8]: blocked the activation of the stellate cell cycle
- collagen expression by the skin [14]: did not inhibit collagen expression by the skin
- collagen expression in the liver and tendons [14]: decreases collagen expression in the liver and tendons
- plasma levels of d-α-tocopherol after treatment [15]: 27±6.8

Molecule: interferon alpha
- patients requiring discontinuance or dosing adjustment [16]: 20-50%

Molecule: O=CCC=O [malondialdehyde]
- activation of hepatic stellate cells on EHS matrix ([7]; 50 μM, data not shown): able to activate stellate cells, but to a lesser extent
- activation of hepatic stellate cells on EHS matrix ([7]; 200 μM): markedly stimulated the activation of hepatic stellate cells
- cells (+) for α-SMA ([7]; stellate cells cultured on plastic, 58% without malondialdehyde, P<0.05): 93%
- stellate cell entry into S-phase ([8]; 200 μM, EHS matrix): stimulated stellate cell entry into S-phase

Molecule: CN1CSC(=Cc2cc(C(C)(C)C)c(O)c(C(C)(C)C)c2)C1=O [LY-256548, 5-{[3,5-bis(1,1-dimethylethyl)-4-hydroxyphenyl]methylene}-4-N-methylthiazolidine]
- enzymatic activity of 5-lipoxygenase [1]: inhibit
- enzymatic activity of fatty acid cyclooxygenase [2]: inhibit
- enzymatic activity of phospholipase A2 [3]: inhibit
- leukotriene B4 production [4]: inhibit leukotriene B4 production

Molecule: C#CCCCC(=O)c1cc(C(C)(C)C)c(O)c(C(C)(C)C)c1 [tebufelone, 4-(5′-hexynoyl)-2,6-di-tert-butylphenol]
- cyclooxygenase inhibition [17]: reversibly inhibits
- 5-lipoxygenase inhibition [18]: reversibly inhibits

Molecule: CC(C)(Sc1cc(C(C)(C)C)c(O)c(C(C)(C)C)c1)Sc1cc(C(C)(C)C)c(O)c(C(C)(C)C)c1 [probucol]
- inhibition of activation and collagen expression/production [5]: success in inhibiting activation and collagen production

Molecule: NC1=NN(c2cccc(C(F)(F)F)c2)CC1 [BW-755c]
- inhibition of activation and collagen expression/production [5]: success in inhibiting activation and collagen production
